In patent US5654420A, “Process for preparing 2'-cyano pyrimidine nucleoside compounds” (Sankyo Company, Limited, priority 1990, dated 1997):
≈ marks a conversion by molar mass, not a printed value. Where a name gives a salt, the structure may show the parent alone.

System: KB human oral epidermoid carcinoma
Experiment: Antitumor activity in vitro (MTT method, 72 h), KB
Assay type: cell-based
Details: 37° C., read-out: IC50 (concentration necessary for inhibiting proliferation of the cells to 50%)
Method: Antitumor activity was determined in vitro using a human cancer strain. As the culture medium for the cancer cell, an RPMI1640 solution containing 10% of […] bovine fetal serum 50 μg/ml of kanamycin was used. Cancer cells (1×10^4 cells/ml) were innoculated to 1 ml of the culture liquids containing samples at different concentrations, respectively, and cultured in a carbon dioxide gas incubator at 37° C. for 72 hours.
Viability of the cancer cells was determined by MTT method in which the amount of living cells in the culture liquids containing the sample and that in culture liquids containing no sample (blank group) are measured based on the intensity of the visible light using [3-(4,5-dimethylthiazol-2-yl)-2,5-diphenyl-tetrazolium bromide] which develops color in proportion to the number of living cells. The intensity of antitumor activity was expressed by IC50 value (concentration (μg/ml) necessary for inhibiting proliferation of the cells to 50%). The IC50 value was obtained from a graph illustrating the relationship between % proliferation of the cancer cells in the sample containing group (% relative to the blank group) and the concentration (logalithmic) of the sample.
KB: human oral epidermoid carcinoma

Row | IC50 | Structure (SMILES)
1 | 7.6 µg/mL (≈ 30.5 µM) | Cc1cn([C@@H]2O[C@H](CO)C=C2C#N)c(=O)[nH]c1=O [Example 12, 1-(2'-Cyano-2',3'-deoxy-2',3'-didehydro-β-D-ribofuranosyl)thymine]
2 | 15 µg/mL | N#C[C@H]1[C@H](O)[C@@H](CO)O[C@H]1n1ccc(N)nc1=O [Example 9, 1-(2'-Cyano-2'-deoxy-β-D-arabinofuranosyl)cytosine monohydrochloride]
